The values below come from patent US9604923B2 (H. LEE MOFFITT CANCER CENTER AND RESEARCH INSTITUTE, INC., priority 2006, dated 2017).

The target of one experiment is STAT3 (Mus musculus, UniProt P42227). In words: Inhibition of STAT3 dimerization, EMSA assay. More on the design: endogenous in cells; host or cells: nuclear extracts per the general EMSA method. The experiment is classed as binding.
The target in a further experiment is T1, Stat3:3 (Mus musculus, UniProt P42227).
T1 construct: endogenous in cells; host or cells: NIH3T3/v-Src or EGF-stimulated NIH3T3/hEGFR mouse fibroblasts, nuclear extracts
Description: STATs DNA-binding activity in vitro, EMSA with hSIE probe. The following applies: for IC50: Table 4, read-out: IC50 values for the inhibition of STATs DNA-binding activity in vitro, Stat3:3; for selectivity among STAT family members, in words: nuclear extracts of EGF-stimulated NIH3T3/hEGFR.

The next experiment addresses T2, Stat1:3 (Mus musculus, UniProt P42227).
T2 construct: endogenous in cells; host or cells: EGF-stimulated NIH3T3/hEGFR mouse fibroblasts, nuclear extracts
The experiment is described as above. The settings on record: Table 4; read-out: IC50 values for the inhibition of STATs DNA-binding activity in vitro, Stat1:3.

The next experiment concerns the target T3, Stat1:1 (Mus musculus, UniProt P42225).
T3 construct: endogenous in cells; host or cells: EGF-stimulated NIH3T3/hEGFR mouse fibroblasts, nuclear extracts
T3 sequence (P42225 2-749 limits assumed): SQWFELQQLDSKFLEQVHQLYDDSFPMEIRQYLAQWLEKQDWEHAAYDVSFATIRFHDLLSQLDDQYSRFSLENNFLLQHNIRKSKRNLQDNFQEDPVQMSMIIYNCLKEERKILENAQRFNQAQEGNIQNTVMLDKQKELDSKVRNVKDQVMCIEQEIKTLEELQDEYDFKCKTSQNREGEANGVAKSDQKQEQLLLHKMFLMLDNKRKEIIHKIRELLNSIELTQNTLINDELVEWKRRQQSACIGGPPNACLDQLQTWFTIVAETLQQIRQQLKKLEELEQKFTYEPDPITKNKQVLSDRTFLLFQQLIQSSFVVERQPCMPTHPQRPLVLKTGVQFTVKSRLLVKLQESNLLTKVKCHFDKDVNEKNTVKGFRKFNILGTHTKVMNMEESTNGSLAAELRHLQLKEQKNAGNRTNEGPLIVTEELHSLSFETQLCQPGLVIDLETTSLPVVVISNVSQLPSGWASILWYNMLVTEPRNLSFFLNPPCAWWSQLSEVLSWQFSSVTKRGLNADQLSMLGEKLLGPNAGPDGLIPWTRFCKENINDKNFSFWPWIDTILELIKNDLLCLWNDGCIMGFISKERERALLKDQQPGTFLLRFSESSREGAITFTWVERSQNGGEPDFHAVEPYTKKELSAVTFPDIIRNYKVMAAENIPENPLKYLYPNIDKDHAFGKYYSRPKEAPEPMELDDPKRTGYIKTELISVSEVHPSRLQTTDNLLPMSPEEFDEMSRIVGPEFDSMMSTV
Description: STATs DNA-binding activity in vitro, EMSA. The settings on record: Table 4; read-out: IC50 values for the inhibition of STATs DNA-binding activity in vitro, Stat1:1.

The next experiment addresses Stat5:5. In words: STATs DNA-binding activity in vitro, EMSA with MGFe probe. Details: species or system mouse. The following applies: Table 4; read-out: IC50 values for the inhibition of STATs DNA-binding activity in vitro, Stat5:5.

Bounds are passed on as bounds.

T1 sequence (P42227 2-770 limits assumed): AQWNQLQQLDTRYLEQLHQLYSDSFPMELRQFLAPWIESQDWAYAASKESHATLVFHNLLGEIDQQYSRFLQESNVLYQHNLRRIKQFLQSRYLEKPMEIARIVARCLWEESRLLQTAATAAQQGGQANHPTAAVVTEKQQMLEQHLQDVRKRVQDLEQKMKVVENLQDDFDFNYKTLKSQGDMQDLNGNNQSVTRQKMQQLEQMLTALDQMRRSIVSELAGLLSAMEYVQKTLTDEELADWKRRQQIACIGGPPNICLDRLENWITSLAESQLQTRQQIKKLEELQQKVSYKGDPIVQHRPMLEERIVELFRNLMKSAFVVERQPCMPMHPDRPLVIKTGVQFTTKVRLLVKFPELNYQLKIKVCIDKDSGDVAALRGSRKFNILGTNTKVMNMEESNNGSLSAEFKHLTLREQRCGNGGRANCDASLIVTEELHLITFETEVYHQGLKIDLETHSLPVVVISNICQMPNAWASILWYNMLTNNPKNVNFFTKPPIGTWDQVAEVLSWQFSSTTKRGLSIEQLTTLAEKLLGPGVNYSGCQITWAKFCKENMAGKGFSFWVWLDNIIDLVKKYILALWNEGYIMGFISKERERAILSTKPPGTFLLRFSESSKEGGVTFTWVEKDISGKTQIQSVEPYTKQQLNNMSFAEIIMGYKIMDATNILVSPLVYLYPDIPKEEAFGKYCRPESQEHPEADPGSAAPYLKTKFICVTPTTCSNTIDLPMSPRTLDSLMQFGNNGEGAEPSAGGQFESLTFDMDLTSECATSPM
T2 sequence (P42227 2-770 limits assumed): as above
Chain of STAT3 (P42227 2-770 limits assumed): as above

In turn, `Cc1ccc(S(=O)(=O)OCC(=O)Nc2ccccc2)cc1` [Compound 6, 2-Oxo-2-(phenylamino)ethyl 4-methylbenzenesulfonate] showed an IC50 on STAT3 of over 500 µM.

With `Cc1ccc(S(=O)(=O)OCC(=O)Nc2ccc(C#N)cc2)cc1` [Compound 7, 2-(4-Cyanophenylamino)-2-oxoethyl 4-methylbenzenesulfonate], at STAT3, the IC50 is over 500 µM.

`Cc1ccc(S(=O)(=O)OCC(=O)Nc2ccc(S(N)(=O)=O)cc2)cc1` [Compound 8, 2-Oxo-2-(4-sulfamoylphenylamino)ethyl 4-methylbenzenesulfonate] displayed an IC50 on STAT3 of over 500 µM.

With `Cc1ccc(S(=O)(=O)NCC(=O)Nc2ccc(C(=O)O)c(O)c2)cc1` [Compound 11], at STAT3, the IC50 was over 500 µM.

Regarding `O=C(COS(=O)(=O)c1ccc(-c2ccc(Cl)cc2)cc1)Nc1ccc(C(=O)O)c(O)c1` [Compound 15, 4-(2-(4′-Chlorobiphenyl-4-ylsulfonyloxy)acetamido)-2-hydroxybenzoic acid], the IC50 against STAT3 was over 500 µM.

`O=C(COS(=O)(=O)c1ccc(-c2ccccc2)cc1)Nc1ccc(C(=O)O)cc1` [Compound 20, 4-(2-(Biphenyl-4-ylsulfonyloxy)acetamido)benzoic acid]: the IC50 on STAT3 was over 500 µM.

On STAT3, `O=C(COCc1ccccc1)Nc1ccc(C(=O)O)cc1` [Compound 22, 4-(2-(Benzyloxy)acetamido)benzoic acid] showed an IC50 of over 500 µM.

Consider `O=C(COCc1ccccc1)Nc1ccc(C(=O)O)c(O)c1` [Compound 23, 4-(2-(Benzyloxy)acetamido)-2-hydroxybenzoic acid], for which the IC50 on STAT3 is over 500 µM.

Turning to `O=C(CCS(=O)(=O)c1ccccc1)Nc1ccc(C(=O)O)c(O)c1` [Compound 24, 4-(3-(Phenylsulfonyl)propanamido)-2-hydroxybenzoic acid], the IC50 against STAT3 was under 500 µM.

As for `O=C(CCS(=O)(=O)c1ccccc1)Nc1ccc(C(=O)O)cc1` [Compound 25, 4-(3-(Phenylsulfonyl)propanamido)benzoic acid], the IC50 on STAT3 is under 500 µM.

Consider `O=C(CCCc1ccccc1)Nc1ccc(C(=O)O)cc1` [Compound 27, 4-(4-Phenylbutanamido)benzoic acid], for which, at STAT3, the IC50 is over 500 µM.

Take `N#Cc1ccc(NC(=O)CNS(=O)(=O)c2ccc(-c3ccccc3)cc2)cc1` [Compound 28, 2-(Biphenyl-4-ylsulfonamido)-N-(4-cyanophenyl)acetamide]: the IC50 against STAT3 was over 500 µM.

Regarding `O=C(CNS(=O)(=O)c1ccc(-c2ccccc2)cc1)Nc1ccc(S(=O)(=O)O)cc1` [Compound 29, 4-(2-(Biphenyl-4-ylsulfonamido)acetamido)benzenesulfonic acid], the IC50 at STAT3 was over 500 µM.

With `NS(=O)(=O)c1ccc(NC(=O)CNS(=O)(=O)c2ccc(-c3ccccc3)cc2)cc1` [Compound 30, 2-(Biphenyl-4-ylsulfonamido)-N-(4-sulfamoylphenyl)acetamide], the IC50 on STAT3 was over 500 µM.

With `O=C(CNS(=O)(=O)c1ccc(-c2ccc(Cl)cc2)cc1)Nc1ccc(C(=O)O)cc1` [Compound 31], the IC50 on STAT3 is over 500 µM.

Regarding `O=C(CNS(=O)(=O)c1ccc(-c2ccccc2)cc1)Nc1ccc(C(=O)O)cc1` [Compound 32], the IC50 at STAT3 is over 500 µM.

`Cc1ccc(S(=O)(=O)NCC(CC(=O)Nc2ccccc2)c2ccc(Cl)cc2)cc1` (stereo not drawn) [Compound 36, 3-(4-Chlorophenyl)-4-(4-methylphenylsulfonamido)-N-phenylbutanamide]: the IC50 at STAT3 is under 500 µM.

`CCOC(=O)c1ccc(NC(=O)CCc2ccc3ccccc3c2)cc1` [Compound 69, Ethyl 4-(3-(naphthalen-2-yl)propanamido)benzoate]: the IC50 against STAT3 is over 500 µM.

Compound `O=C(CCc1ccccc1)Nc1ccc(C(=O)O)cc1` [Compound 72, 4-(3-Phenylpropanamido)benzoic acid] registered an IC50 at STAT3 of over 500 µM.

Consider `O=C(CCc1ccccc1)Nc1ccc(C(=O)O)c(O)c1` [Compound 73, 4-(3-Phenylpropanamido)-2-hydroxybenzoic acid], for which the IC50 on STAT3 was over 500 µM.

At STAT3, `COC(=O)c1ccc2cc(C(=O)Nc3cc(C(=O)O)ccc3O)ccc2c1` [Compound 75, 4-hydroxy-3-(6-(methoxycarbonyl)-2-naphthamido)benzoic acid] had an IC50 of under 500 µM.

As for `O=C1C=C(Nc2ccc(S(=O)(=O)Nc3ccccn3)cc2)C(=O)C=C1Nc1ccc(S(=O)(=O)Nc2ccccn2)cc1` [NSC 11421], the “inhibition of Stat3 DNA-binding activity, in words” value (“inhibition” for short) on Stat3:3 is given as “notable potent inhibitors”. Moreover, the IC50 came to 80 µM at Stat3:3, 145 µM on Stat1:3, 105 µM on Stat1:1 and 221 µM on Stat5:5.

With `O=C1c2ccccc2-c2ccc(N(Cc3ccc([N+](=O)[O-])cc3)Cc3ccc([N+](=O)[O-])cc3)cc21` [NSC 24056], the IC50 at Stat3:3 turned out to be 245 µM; on Stat1:3 it was 256 µM; on Stat1:1, 267 µM; at Stat5:5, 235 µM.

For `C=CC1=C(C)/C(=C/c2[nH]c(Cc3[nH]c(/C=C4\NC(=O)C(C)=C4C=C)c(C)c3CCC(=O)O)c(CCC(=O)O)c2C)NC1=O` [NSC 26685], the IC50 turned out to be 85 µM on Stat3:3, 68 µM on Stat1:3, 95 µM at Stat1:1 and 125 µM on Stat5:5.

Take `O=C(O)c1cc(O)c(O)c(OC(=O)c2cc(O)c(O)c(O)c2CNc2ccc3cc(S(=O)(=O)O)cc(S(=O)(=O)O)c3c2)c1` [NSC 42067]: the “inhibition” value on Stat3:3 was “Potent inhibition”. Also, the IC50 was 65 µM at Stat3:3, 86 µM on Stat1:3, 197 µM on Stat1:1 and 88 µM at Stat5:5. In addition, the “selectivity among STAT family members, in words” value at Stat3:3 is “preferentially inhibit Stat3 and Stat5 over that of Stat1”.

For `CC(CCC(=O)O)(c1ccc(OC(=O)Nc2ccccc2Cl)cc1)c1ccc(OC(=O)Nc2ccccc2Cl)cc1` [NSC 51926], the IC50 at Stat3:3 was 292 µM; at Stat1:3, 300 µM; on Stat1:1, 300 µM; at Stat5:5, over 300 µM.

Regarding `O=C(Nc1cccc(NC(=O)C(=O)O)c1)Oc1ccccc1` [NSC 71906], the IC50 at Stat3:3 amounted to 295 µM; on Stat1:3, 258 µM; on Stat1:1 it was 225 µM; at Stat5:5, 285 µM.

In the case of `Cc1cc(N=Nc2ccc(-c3ccc(N=Nc4ccc(O)c(C(=O)O)c4)cc3)cc2)c(N)c(N=Nc2cc(C(=O)O)ccc2Cl)c1N.[Na+]` [NSC 75912], the “inhibition” value on Stat3:3 is on record as “Potent inhibition”. Besides, the IC50 at Stat3:3 is 160 µM; on Stat1:3 it was 104 µM; at Stat1:1 it was 72 µM; at Stat5:5, over 300 µM. For the same compound, at Stat3:3, the “selectivity among STAT family members, in words” value is given as “preferentially inhibits Stat1 over Stat3 or Stat5”.

For `Cc1cc(N=Nc2ccc(-c3ccc(N=Nc4ccc(O)c(C(=O)O)c4)cc3)cc2)c(N)c(N=Nc2cccc(OCC(=O)O)c2)c1N` [NSC 75914], the IC50 on Stat3:3 was 276 µM; on Stat1:3, 263 µM; at Stat1:1 it was 113 µM; at Stat5:5, over 300 µM.

As to `O=C(OC1COC(n2c(=O)oc3cc([N+](=O)[O-])ccc32)C(OC(=O)c2ccccc2)C1OC(=O)c1ccccc1)c1ccccc1` (stereo not drawn) [NSC 87849], the IC50 at Stat3:3, at Stat1:3, at Stat1:1 and on Stat5:5 was over 300 µM in each case.

On to `CN=C(Nc1ccccn1)c1ccc(NC(=O)c2ccc(C(=O)Nc3ccc(C(=NC)Nc4ccccn4)cc3)cc2)cc1` [NSC 90438], for which the IC50 at Stat3:3, on Stat1:3, on Stat1:1 and at Stat5:5 was over 300 µM in each case.
